Test results as given in patent publication US20100130477A1, “Spirocyclobutyl Piperidine Derivatives” (ASTRAZENECA AB, priority 2008, published 2010).
pIC50: −log10 of the molar value.

Target: T1, human Histamine H3 receptor (hH3R) (Homo sapiens, UniProt Q9Y5N1)
T1 construct: expressed in transfected cells; host or cells: CHO cells (Chinese Hamster Ovary); membranes
Assay: GTPγS Binding Assay (antagonist activity, [35S]GTPγS, (R)-α-methyl histamine 30 nM)
Format: biochemical
Settings: membranes from CHO cells expressing hH3R, 90 minutes at room temperature
Experimental: Guanosine 5′-O-(3-[^35S]thio)triphosphate [GTPγS] Binding Assay
A GTPγS binding assay can be used to investigate antagonist properties of compounds in CHO cells (Chinese Hamster Ovary) transfected with human Histamine H3 receptor (hH3R). Membranes from CHO cells expressing hH3R (10 μg/well) are diluted in GTPγS assay buffer (20 mM Hepes, 10 mM MgCl2, 100 mM NaCl, pH 7.4) and preincubated with saponine (3 μg/ml), GDP (10 μM) and PVT-WGA SPA beads (125 μg/well) (Amersham) for 30 minutes. To determine antagonist activity, (R)-α-methyl histamine (30 nM) is added in 96 well SPA plate with [^35S]GTPγS (0.2 nM) and various concentration of H3R antagonists. The GTPγS binding assay is started with addition of the mixture membrane/saponine/GDP and incubated for 90 minutes at room temperature. The amount of bound [^35S]GTPγS is determined by using the MicroBeta Trilux counter (PerkinElmer). The percentage of [^35S]GTPγS bound in each sample is calculated as a percentage of that bound control sample incubated in absence of H3 antagonist. Duplicate determinations are obtained for each concentration, and the data are analyzed using ExcelFit4 to obtain the IC50.

T1 sequence (Q9Y5N1 whole entry): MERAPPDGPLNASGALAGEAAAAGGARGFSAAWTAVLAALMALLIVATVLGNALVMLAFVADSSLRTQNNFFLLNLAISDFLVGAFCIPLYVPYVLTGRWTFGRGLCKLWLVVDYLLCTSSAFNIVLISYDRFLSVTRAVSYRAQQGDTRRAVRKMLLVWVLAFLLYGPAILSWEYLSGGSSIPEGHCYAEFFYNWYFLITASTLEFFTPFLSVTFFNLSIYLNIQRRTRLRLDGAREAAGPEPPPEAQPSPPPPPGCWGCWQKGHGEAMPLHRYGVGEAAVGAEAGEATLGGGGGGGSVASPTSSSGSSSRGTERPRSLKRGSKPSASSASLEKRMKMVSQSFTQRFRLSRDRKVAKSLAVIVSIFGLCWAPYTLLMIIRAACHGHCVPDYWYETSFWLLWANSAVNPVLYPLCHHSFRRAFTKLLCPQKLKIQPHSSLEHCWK

SMILES | pIC50
O=C(C1CC2(CCN(c3cccnc3)CC2)C1)N1CCN(C2CCC2)CC1 [Example 1, (4-cyclobutylpiperazin-1-yl)(7-(pyridin-3-yl)-7-azaspiro[3.5]nonan-2-yl)methanone] | 7.75
O=C(C1CC2(CCN(c3ccccn3)CC2)C1)N1CCN(C2CCC2)CC1 [Example 2, (4-cyclobutylpiperazin-1-yl)(7-(pyridin-2-yl)-7-azaspiro[3.5]nonan-2-yl)methanone] | 7.57
O=C(C1CC2(CCN(c3ccccc3)CC2)C1)N1CCN(C2CCC2)CC1 [Example 3, (4-cyclobutylpiperazin-1-yl)(7-phenyl-7-azaspiro[3.5]nonan-2-yl)methanone] | 7.14
CC(C)S(=O)(=O)N1CCC2(CC1)CC(C(=O)N1CCN(C3CCC3)CC1)C2 [Example 4, (4-cyclobutylpiperazin-1-yl)(7-(isopropylsulfonyl)-7-azaspiro[3.5]nonan-2-yl)methanone] | 7.81
CS(=O)(=O)N1CCC2(CC1)CC(C(=O)N1CCN(C3CCC3)CC1)C2 [Example 5, (4-cyclobutylpiperazin-1-yl)(7-(methylsulfonyl)-7-azaspiro[3.5]nonan-2-yl)methanone] | 8.14
O=C(C1CC2(CCN(S(=O)(=O)c3ccccc3)CC2)C1)N1CCN(C2CCC2)CC1 [Example 6, (4-cyclobutylpiperazin-1-yl)(7-(phenylsulfonyl)-7-azaspiro[3.5]nonan-2-yl)methanone] | 8.18
O=C(C1CCCCC1)N1CCC2(CC1)CC(C(=O)N1CCN(C3CCC3)CC1)C2 [Example 7, (4-cyclobutylpiperazin-1-yl)(7-(cyclohexanecarbonyl)-7-azaspiro[3.5]nonan-2-yl)methanone] | 7.28
CCc1cnccc1C(=O)N1CCC2(CC1)CC(C(=O)N1CCN(C3CCC3)CC1)C2 [Example 8, (4-cyclobutylpiperazin-1-yl)(7-(3-ethylisonicotinoyl)-7-azaspiro[3.5]nonan-2-yl)methanone] | 7.64
O=C(c1cncc(Cl)c1)N1CCC2(CC1)CC(C(=O)N1CCN(C3CCC3)CC1)C2 [Example 9, (7-(5-chloronicotinoyl)-7-azaspiro[3.5]nonan-2-yl)(4-cyclobutylpiperazin-1-yl)methanone] | 7.68
O=C(c1cnccc1Cl)N1CCC2(CC1)CC(C(=O)N1CCN(C3CCC3)CC1)C2 [Example 10, (7-(4-chloronicotinoyl)-7-azaspiro[3.5]nonan-2-yl)(4-cyclobutylpiperazin-1-yl)methanone] | 7.53
Cc1ccnc(C)c1C(=O)N1CCC2(CC1)CC(C(=O)N1CCN(C3CCC3)CC1)C2 [Example 11, (4-cyclobutylpiperazin-1-yl)(7-(2,4-dimethylnicotinoyl)-7-azaspiro[3.5]nonan-2-yl)methanone] | 7.77
Cc1ccc(C(=O)N2CCC3(CC2)CC(C(=O)N2CCN(C4CCC4)CC2)C3)cn1 [Example 12, (4-cyclobutylpiperazin-1-yl)(7-(6-methylnicotinoyl)-7-azaspiro[3.5]nonan-2-yl)methanone] | 7.58
Cc1ncccc1C(=O)N1CCC2(CC1)CC(C(=O)N1CCN(C3CCC3)CC1)C2 [Example 13, (4-cyclobutylpiperazin-1-yl)(7-(2-methylnicotinoyl)-7-azaspiro[3.5]nonan-2-yl)methanone] | 7.55
Cc1ccncc1C(=O)N1CCC2(CC1)CC(C(=O)N1CCN(C3CCC3)CC1)C2 [Example 14, (4-cyclobutylpiperazin-1-yl)(7-(4-methylnicotinoyl)-7-azaspiro[3.5]nonan-2-yl)methanone] | 7.38
N#Cc1ccc(C(=O)N2CCC3(CC2)CC(C(=O)N2CCN(C4CCC4)CC2)C3)nc1 [Example 15, 6-(2-(4-cyclobutylpiperazine-1-carbonyl)-7-azaspiro[3.5]nonane-7-carbonyl)nicotinonitrile] | 7.50
O=C(c1ncc(F)cc1F)N1CCC2(CC1)CC(C(=O)N1CCN(C3CCC3)CC1)C2 [Example 16, (4-cyclobutylpiperazin-1-yl)(7-(3,5-difluoropicolinoyl)-7-azaspiro[3.5]nonan-2-yl)methanone] | 7.09
O=C(c1cc(Cl)ccn1)N1CCC2(CC1)CC(C(=O)N1CCN(C3CCC3)CC1)C2 [Example 17, (7-(4-chloropicolinoyl)-7-azaspiro[3.5]nonan-2-yl)(4-cyclobutylpiperazin-1-yl)methanone] | 7.46
Cc1cccc(C(=O)N2CCC3(CC2)CC(C(=O)N2CCN(C4CCC4)CC2)C3)n1 [Example 18, (4-cyclobutylpiperazin-1-yl)(7-(6-methylpicolinoyl)-7-azaspiro[3.5]nonan-2-yl)methanone] | 7.27

SMILES | pIC50
Cc1cccnc1C(=O)N1CCC2(CC1)CC(C(=O)N1CCN(C3CCC3)CC1)C2 [Example 19, (4-cyclobutylpiperazin-1-yl)(7-(3-methylpicolinoyl)-7-azaspiro[3.5]nonan-2-yl)methanone] | 7.61
O=C(c1ccccn1)N1CCC2(CC1)CC(C(=O)N1CCN(C3CCC3)CC1)C2 [Example 20, (4-cyclobutylpiperazin-1-yl)(7-picolinoyl-7-azaspiro[3.5]nonan-2-yl)methanone] | 7.32
O=C(c1cccnc1)N1CCC2(CC1)CC(C(=O)N1CCN(C3CCC3)CC1)C2 [Example 21, (4-cyclobutylpiperazin-1-yl)(7-nicotinoyl-7-azaspiro[3.5]nonan-2-yl)methanone] | 7.74
O=C(c1ccncc1)N1CCC2(CC1)CC(C(=O)N1CCN(C3CCC3)CC1)C2 [Example 22, (4-cyclobutylpiperazin-1-yl)(7-isonicotinoyl-7-azaspiro[3.5]nonan-2-yl)methanone] | 7.90
Cc1cnccc1C(=O)N1CCC2(CC1)CC(C(=O)N1CCN(C3CCC3)CC1)C2 [Example 23, (4-cyclobutylpiperazin-1-yl)(7-(3-methylisonicotinoyl)-7-azaspiro[3.5]nonan-2-yl)methanone] | 8.22
Cc1cc(C(=O)N2CCC3(CC2)CC(C(=O)N2CCN(C4CCC4)CC2)C3)ccn1 [Example 24, (4-cyclobutylpiperazin-1-yl)(7-(2-methylisonicotinoyl)-7-azaspiro[3.5]nonan-2-yl)methanone] | 7.66
Cc1cncc(C(=O)N2CCC3(CC2)CC(C(=O)N2CCN(C4CCC4)CC2)C3)c1 [Example 25, (4-cyclobutylpiperazin-1-yl)(7-(5-methylnicotinoyl)-7-azaspiro[3.5]nonan-2-yl)methanone] | 7.90
COc1cc(C(=O)N2CCC3(CC2)CC(C(=O)N2CCN(C4CCC4)CC2)C3)ccn1 [Example 26, (4-cyclobutylpiperazin-1-yl)(7-(2-methoxyisonicotinoyl)-7-azaspiro[3.5]nonan-2-yl)methanone] | 7.62
O=C(Cc1cccnc1)N1CCC2(CC1)CC(C(=O)N1CCN(C3CCC3)CC1)C2 [Example 27, 1-(2-(4-cyclobutylpiperazine-1-carbonyl)-7-azaspiro[3.5]nonan-7-yl)-2-(pyridin-3-yl)ethanone] | 7.90
O=C(Cc1ccncc1)N1CCC2(CC1)CC(C(=O)N1CCN(C3CCC3)CC1)C2 [Example 28, 1-(2-(4-cyclobutylpiperazine-1-carbonyl)-7-azaspiro[3.5]nonan-7-yl)-2-(pyridin-4-yl)ethanone] | 7.86
O=C(CCc1ccncc1)N1CCC2(CC1)CC(C(=O)N1CCN(C3CCC3)CC1)C2 [Example 29, 1-(2-(4-cyclobutylpiperazine-1-carbonyl)-7-azaspiro[3.5]nonan-7-yl)-3-(pyridin-4-yl)propan-1-one] | 7.70
O=C(c1ccccc1)N1CCC2(CC1)CC(C(=O)N1CCN(C3CCC3)CC1)C2 [Example 30, (7-benzoyl-7-azaspiro[3.5]nonan-2-yl)(4-cyclobutylpiperazin-1-yl)methanone] | 7.32
N#Cc1cccc(C(=O)N2CCC3(CC2)CC(C(=O)N2CCN(C4CCC4)CC2)C3)c1 [Example 31, 3-(2-(4-cyclobutylpiperazine-1-carbonyl)-7-azaspiro[3.5]nonane-7-carbonyl)benzonitrile] | 7.61
O=C(Nc1ccccc1)N1CCC2(CC1)CC(C(=O)N1CCN(C3CCC3)CC1)C2 [Example 32, 2-(4-cyclobutylpiperazine-1-carbonyl)-N-phenyl-7-azaspiro[3.5]nonane-7-carboxamide] | 7.32
CC(C)N1CCN(C(=O)C2CC3(CCN(S(C)(=O)=O)CC3)C2)CC1 [Example 33, (4-isopropylpiperazin-1-yl)(7-(methylsulfonyl)-7-azaspiro[3.5]nonan-2-yl)methanone] | 7.47
Cc1cc(C(=O)N2CCC3(CC2)CC(C(=O)N2CCN(C(C)C)CC2)C3)ccn1 [Example 34, (4-isopropylpiperazin-1-yl)(7-(2-methylisonicotinoyl)-7-azaspiro[3.5]nonan-2-yl)methanone] | 7.18
CC(C)N1CCN(C(=O)C2CC3(CCN(C(=O)c4ccncc4)CC3)C2)CC1 [Example 35, (7-isonicotinoyl-7-azaspiro[3.5]nonan-2-yl)(4-isopropylpiperazin-1-yl)methanone] | 7.21
CC(C)N1CCN(C(=O)C2CC3(CCN(C(=O)c4cccnc4)CC3)C2)CC1 [Example 36, (4-isopropylpiperazin-1-yl)(7-nicotinoyl-7-azaspiro[3.5]nonan-2-yl)methanone] | 7.17
